Marks after values point to notes of the source that are not given here.
How the values were obtained:
Type in all cases: in vivo
[1] = Acute toxicity, single intraperitoneal injection in rats aged 30-35 days; settings: both sexes, white outbred, rat, in vivo, ip; rats 30-35 days; single i.p.
Method: (§1) Tables 2, 2.1 and 2.2 present the results of acute toxicity studies of the Compounds with active substance content in at least white outbred male mice (body weight 18-24 g) and white outbred rats 30-35 days of age, of both sexes with a single dose. Calculation of toxic doses was made using the Wilcoxon and Litchfield method. Observations were made over 24 hours and 14 days after a single dose.
(§2) LD50 in rat pups after intragastric administration was not found. Intragastric administration to rat pups of doses of more than 1000 mg/kg is technically impossible due to the small volume of the stomach (Table 2.2).

[2] = test system: rats; test: as above
Method: as §1, §2

[3] = test system: rats; test: Ischemic stroke (middle cerebral artery occlusion), McGrow scale
Description: The stroke condition was simulated in male rats (270-320 g) at a local cerebral hemorrhage, as a hemorrhagic stroke (intracerebral post-traumatic hematoma) by the method of A. N. Makarenko et al (1990) and at cerebral ischemia with distal occlusion of the middle cerebral artery (Chen S. T., Hsu C. Y., Hogan E. L., Maricq H., Balentine J. D. A model of focal ischemic stroke in the rat reproducible extensive cortical infarction//Stroke.—1989, V. 17, No 4, p. 738-743) as an ischemic stroke. Phenotropil was injected intraperitoneally at hemorrhagic stroke at 100 mg/kg immediately after surgery, and one hour before and two hours after the surgery (at doses of 100, 200 and 300 mg/kg) at ischemic stroke. Control animals were treated adequately with distilled water.

[4] = test system: mice; test: Benzedrine-induced stimulation of orientation-locomotor activity
Description: In regard to influencing the effects of Benzedrine, Phenotropil also can provide, depending on the dose, the diametrically opposite activity when in combination with psychostimulants. This fact must be taken into account in combined use of various pharmacological agents.

[5] = test system: rats; test: Forced swimming with freely rotating wheels by Nomura; settings: rat pups
Method: The antidepressant effect of Phenotropil was studied in adult rats (185-218 g) and rat pups of 28-35 days of age (85-110 g). The test drugs were injected intraperitoneally in the first case and intragastrically in the second case 40 min before the tests. The methods of behavioral despair during forced swimming (Porsolt et al., 1978) and forced swimming with freely rotating wheels (Nomura et al., 1982) were used.
In the study of depression by Porsolt, no significant differences between the effective doses were found (Table 10), while according to the method of Nomura this difference is statistically significant. At a dose of 100 mg/kg, the efficacy of Phenotropil as compared to the control, was 59.0%. At a dose of 200 mg/kg it was +30.0% in comparison with the control group (Table 10.1). […] The effect of Phenotropil was investigated by the method of Nomura also in mature outbred rats (185-218 g).

[6] = test system: mice; test: Toxic effect of ethanol (lateral position, lethal dose); settings: 25.0-200 mg/kg
Description: The antitoxic, sobering and anticraving, activity, as well as the effect of Phenotropil in abstinence was studied on white outbred male rats (weighing 180-220 g) and male mice (weighing 18-24 g) in chronic alcoholism. […] Alcoholized rats after four months of alcoholism and treatment with Phenotropilom voluntarily give up intake of alcohol (anticraving activity) with free choice of water and alcohol (Table 11).

[7] = 100 mg/kg i.p. after MCAO, first day
[8] = 100 mg/kg i.p. after MCAO, second day
[9] = 100 mg/kg i.p. after MCAO, third day
[10] = 100 mg/kg i.p. before MCAO, first day
[11] = 100 mg/kg i.p. before MCAO, second day
[12] = 100 mg/kg i.p. before MCAO, third day
[13] = 200 mg/kg i.p. after MCAO, first day
[14] = 200 mg/kg i.p. after MCAO, second day
[15] = 200 mg/kg i.p. after MCAO, third day
[16] = 200 mg/kg i.p. before MCAO, first day
[17] = 200 mg/kg i.p. before MCAO, second day
[18] = 200 mg/kg i.p. before MCAO, third day
[19] = 300 mg/kg i.p. after MCAO, first day
[20] = 300 mg/kg i.p. after MCAO, second day
[21] = 300 mg/kg i.p. after MCAO, third day
[22] = 300 mg/kg i.p. before MCAO, first day
[23] = 300 mg/kg i.p. before MCAO, second day
[24] = 300 mg/kg i.p. before MCAO, third day
[25] = mice, Benzedrine 3 mg/kg + Phenotropil 50.0 mg/kg
[26] = mice, Benzedrine 3 mg/kg + Phenotropil 100.0 mg/kg
[27] = mice, Benzedrine 3 mg/kg + Phenotropil 300.0 mg/kg
[28] = mice, doses of 50 and 100 mg/kg (so in the source)

In the case of NC(=O)CN1CC(c2ccccc2)CC1=O (racemic) [Compound 1, (RS)-2-(2-oxo-4-phenylpyrrolidine-1-yl)acetamide], the LD50 at 14 days [1] is reported as 1030 mg/kg, the LD16 ([2]; rats 30-35 days, single i.p.) is reported as “LD16 = 906.7 mg/kg” and the LD84 ([2]; rats 30-35 days, single i.p.) is reported as “LD84 = 1159.0 mg/kg”. The Dead/total number ([2]; rats 30-35 days, single i.p. 800 mg/kg) was 0/10, the Dead/total number ([2]; rats 30-35 days, single i.p. 1000 mg/kg) was 4/10 and the Dead/total number ([2]; rats 30-35 days, single i.p. 1100 mg/kg) was 9/10. The Dead/total number ([2]; rats 30-35 days, single i.p. 1200 mg/kg) was 9/10, the Dead/total number ([2]; rats 30-35 days, single i.p. 1500 mg/kg) was 10/10 and the “% of dead rat pups” value ([2]; single i.p. 800 mg/kg) was 0%. The “% of dead rat pups” value ([2]; single i.p. 1000 mg/kg) was 40%, the “% of dead rat pups” value ([2]; single i.p. 1100 mg/kg) was 90% and the “% of dead rat pups” value ([2]; single i.p. 1200 mg/kg) was 90%. For the same compound, the “% of dead rat pups” value ([2]; single i.p. 1500 mg/kg) was 100%, the “animals (out of 10) with circling movements” value [3, 7] was 0* and the “animals (out of 10) with lethargy, slowness of functions” value (shortened to “animals (out of 10) with lethargy”) [3, 7] was 4*. The “animals (out of 10) with tremor” value [3, 7] was 2*, the “animals (out of 10) with unilateral hemiptosis” value [3, 7] was 4 and the “animals (out of 10) with circling movements” value [3, 8] was 0*. For the same compound, the “animals (out of 10) with lethargy” value [3, 8] was 3*, the “animals (out of 10) with tremor” value [3, 8] was 0* and the “animals (out of 10) with unilateral hemiptosis” value [3, 8] was 5. For the same compound, the “animals (out of 10) with circling movements” value [3, 9] was 0, the “animals (out of 10) with lethargy” value [3, 9] was 2* and the “animals (out of 10) with tremor” value [3, 9] was 0. For the same compound, the “animals (out of 10) with unilateral hemiptosis” value [3, 9] was 3, the “animals (out of 10) with circling movements” value [3, 10] was 0* and the “animals (out of 10) with lethargy” value [3, 10] was 2*. The “animals (out of 10) with tremor” value [3, 10] was 2*, the “animals (out of 10) with unilateral hemiptosis” value [3, 10] was 4 and the “animals (out of 10) with circling movements” value [3, 11] was 0*. For the same compound, the “animals (out of 10) with lethargy” value [3, 11] was 1*, the “animals (out of 10) with tremor” value [3, 11] was 0* and the “animals (out of 10) with unilateral hemiptosis” value [3, 11] was 5. For the same compound, the “animals (out of 10) with circling movements” value [3, 12] was 0, the “animals (out of 10) with lethargy” value [3, 12] was 1* and the “animals (out of 10) with tremor” value [3, 12] was 0. For the same compound, the “animals (out of 10) with unilateral hemiptosis” value [3, 12] was 3, the “animals (out of 10) with circling movements” value [3, 13] was 0* and the “animals (out of 10) with lethargy” value [3, 13] was 4*. The “animals (out of 10) with tremor” value [3, 13] was 2*, the “animals (out of 10) with unilateral hemiptosis” value [3, 13] was 3 and the “animals (out of 10) with circling movements” value [3, 14] was 0*. For the same compound, the “animals (out of 10) with lethargy” value [3, 14] was 3*, the “animals (out of 10) with tremor” value [3, 14] was 0* and the “animals (out of 10) with unilateral hemiptosis” value [3, 14] was 4. The “animals (out of 10) with circling movements” value [3, 15] was 0, the “animals (out of 10) with lethargy” value [3, 15] was 1* and the “animals (out of 10) with tremor” value [3, 15] was 0. The “animals (out of 10) with unilateral hemiptosis” value [3, 15] was 3, the “animals (out of 10) with circling movements” value [3, 16] was 0* and the “animals (out of 10) with lethargy” value [3, 16] was 3*. For the same compound, the “animals (out of 10) with tremor” value [3, 16] was 3*, the “animals (out of 10) with unilateral hemiptosis” value [3, 16] was 4 and the “animals (out of 10) with circling movements” value [3, 17] was 0*. The “animals (out of 10) with lethargy” value [3, 17] was 2*, the “animals (out of 10) with tremor” value [3, 17] was 0* and the “animals (out of 10) with unilateral hemiptosis” value [3, 17] was 4. The “animals (out of 10) with circling movements” value [3, 18] was 0, the “animals (out of 10) with lethargy” value [3, 18] was 0* and the “animals (out of 10) with tremor” value [3, 18] was 0. For the same compound, the “animals (out of 10) with unilateral hemiptosis” value [3, 18] was 3, the “animals (out of 10) with circling movements” value [3, 19] was 0* and the “animals (out of 10) with lethargy” value [3, 19] was 4*. The “animals (out of 10) with tremor” value [3, 19] was 3*, the “animals (out of 10) with unilateral hemiptosis” value [3, 19] was 3 and the “animals (out of 10) with circling movements” value [3, 20] was 0*. The “animals (out of 10) with lethargy” value [3, 20] was 2*, the “animals (out of 10) with tremor” value [3, 20] was 0* and the “animals (out of 10) with unilateral hemiptosis” value [3, 20] was 5. The “animals (out of 10) with circling movements” value [3, 21] was 0, the “animals (out of 10) with lethargy” value [3, 21] was 1* and the “animals (out of 10) with tremor” value [3, 21] was 0. The “animals (out of 10) with unilateral hemiptosis” value [3, 21] was 3, the “animals (out of 10) with circling movements” value [3, 22] was 0* and the “animals (out of 10) with lethargy” value [3, 22] was 2*. For the same compound, the “animals (out of 10) with tremor” value [3, 22] was 2*, the “animals (out of 10) with unilateral hemiptosis” value [3, 22] was 4 and the “animals (out of 10) with circling movements” value [3, 23] was 0*. For the same compound, the “animals (out of 10) with lethargy” value [3, 23] was 1*, the “animals (out of 10) with tremor” value [3, 23] was 0* and the “animals (out of 10) with unilateral hemiptosis” value [3, 23] was 5. The “animals (out of 10) with circling movements” value [3, 24] was 0, the “animals (out of 10) with lethargy” value [3, 24] was 0* and the “animals (out of 10) with tremor” value [3, 24] was 0. For the same compound, the “animals (out of 10) with unilateral hemiptosis” value [3, 24] was 3, the “Number of pulses for 3 min.” value [4, 25] was 126.0 ± 12.4 and the “Number of stand-ups for 3 min.” value [4, 25] was 15.9 ± 2.0. The “Number of pulses for 3 min.” value [4, 26] was 129.2 ± 14.2, the “Number of stand-ups for 3 min.” value [4, 26] was 24.2 ± 4.8 and the “Number of pulses for 3 min.” value [4, 27] was 48.1 ± 9.4. The “Number of stand-ups for 3 min.” value [4, 27] was 12.1 ± 4.6, the “increase of orientation and exploratory behavior, horizontal component, vs control” value [4, 28] was 240.0% and the “increase of orientation and exploratory behavior, vertical component, vs control” value [4, 28] was 89.0%. For the same compound, the “reduction of psychostimulant effect of Benzedrine, horizontal component” value ([4]; single 300 mg/kg) was ~42.9%, the “reduction of psychostimulant effect of Benzedrine, vertical component” value ([4]; single 300 mg/kg) was 14.8% and the Number of revolutions ([5]; 100 mg/kg) was 175.4 ± 22.98. The Number of revolutions ([5]; 200 mg/kg) was 143.4 ± 33.14 and the “toxic effect of ethanol (lateral position indicator and lethal dose)” value [6] was “reduced tenfold”.
